Experimental data from patent US9283213B2, “Dihydropyridin-2(1H)-one compounds as S-nitrosoglutathione reductase inhibitors and neurokinin-3 receptor antagonists” (N30 Pharmaceuticals, Inc., priority 2010, dated 2016).
pIC50: −log10 of the molar value.

What was measured:
[1] = target: T1, human NK3 receptor (Homo sapiens, UniProt P29371); assay: Human NK3 receptor binding assay determined by IC50; settings: 0.4 nM [3H]SR142801; CHO cell membranes
T1 construct: expressed in transfected cells; host or cells: CHO cells
T1 sequence (P29371 1-465): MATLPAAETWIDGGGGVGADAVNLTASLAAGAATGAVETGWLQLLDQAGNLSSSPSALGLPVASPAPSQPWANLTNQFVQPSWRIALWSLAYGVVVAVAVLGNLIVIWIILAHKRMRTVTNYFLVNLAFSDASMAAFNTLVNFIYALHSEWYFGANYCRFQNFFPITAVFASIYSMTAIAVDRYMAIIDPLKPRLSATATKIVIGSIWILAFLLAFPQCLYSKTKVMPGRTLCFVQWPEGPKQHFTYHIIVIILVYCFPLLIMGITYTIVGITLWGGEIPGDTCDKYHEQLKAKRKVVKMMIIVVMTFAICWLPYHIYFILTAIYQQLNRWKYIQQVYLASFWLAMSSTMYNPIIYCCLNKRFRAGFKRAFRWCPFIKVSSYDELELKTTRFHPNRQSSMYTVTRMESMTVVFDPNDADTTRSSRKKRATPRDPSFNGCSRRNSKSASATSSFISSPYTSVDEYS
Description: Evaluation of the affinity of compounds for the human NK3 receptor from transfected CHO cells was performed using an antagonist radioligand binding assay. The antagonist activity of a representative subset of test compounds was evaluated over a range of concentrations, and the results were expressed as IC50 values.
Receptor binding assays were performed using crude membranes prepared from CHO cells expressing human NK3 receptor. Osanetant (SR142801), a non-peptide NK3 antagonist, was used as a ligand, and SB222200 was used as a positive control reference compound. […] The filters were rinsed several times with ice-cold 50 mM Tris/HCl using a 96-sample cell harvester (Unifilter, Packard), dried, and counted for radioactivity in a scintillation counter (Topcount, Packard) using a scintillation cocktail (Microscint 0, Packard). […] Nonspecific binding was determined in the presence of 10 μM SB222200. […] The IC50 values (concentration causing a half-maximal inhibition of control specific binding) and Hill coefficients (nH) were determined by non-linear regression analysis of the competition curves generated with mean replicate values using Hill equation curve fitting (Y=D+[(A−D)/(1+(C/C50)^nH)], where Y=specific binding, D=minimum specific binding, A=maximum specific binding, C=compound concentration, C50=IC50, and nH=slope factor). […]

[2] = target: T1, human NK3 receptor; assay: Human NK3 receptor binding assay at 10 μM; settings: 10 μM test compound; 0.4 nM [3H]SR142801; CHO cell membranes; read-out: percent inhibition at 10 μM, human NK3 receptor binding
Description: Evaluation of the affinity of test compounds for the human neurokinin NK3 receptor from transfected CHO cells was performed using an antagonist radioligand binding assay. Antagonist activity was evaluated at a concentration of 10 μM for a representative subset of test compounds, and the results were expressed as the percent inhibition at that concentration.
Receptor binding assays were performed using crude membranes prepared from CHO cells expressing human NK3 receptor. Osanetant (SR142801), a non-peptide NK3 antagonist, was used as a ligand, and SB222200 was used as a positive control reference compound. The assay was performed with cell membrane homogenates (24 μg protein) incubated for 120 min at 22° C. with 0.4 nM [^3H]SR142801 in the absence or presence of the test compound in a buffer containing 20 mM Hepes/NaOH (pH 7.4), 120 mM NaCl, 1 mM MnCl2, 0.01% bacitracin, 0.002% aprotinin and 0.1% BSA. Following incubation, the samples were filtered rapidly under vacuum through glass fiber filters (GF/B, Packard) that had been presoaked with 0.3% PEI. The filters were rinsed several times with ice-cold 50 mM Tris/HCl using a 96-sample cell harvester (Unifilter, Packard), dried, and counted for radioactivity in a scintillation counter (Topcount, Packard) using a scintillation cocktail (Microscint 0, Packard). Each test compound was evaluated at a single concentration of 10 μM. The standard reference compound, SB222200, was tested in each experiment. Nonspecific binding was determined in the presence of 10 μM SB222200. The specific ligand binding to the receptor is defined as the difference between the total binding and the nonspecific binding. The results are expressed as a percent of control specific binding ((measured specific binding/control specific binding)×100) obtained in the presence of the test compounds.

[3] = target: T2, GSNOR (Homo sapiens, UniProt P11766); assay: GSNOR assay (inhibition of GSNOR activity in vitro); assay type: biochemical; settings: 0.240 mM GSNO, 0.300 mM NADH, pH 7.4, 25° C.; read-out: GSNOR inhibitor IC50
T2 construct: made in house; host or cells: E. coli
T2 sequence (P11766 whole entry): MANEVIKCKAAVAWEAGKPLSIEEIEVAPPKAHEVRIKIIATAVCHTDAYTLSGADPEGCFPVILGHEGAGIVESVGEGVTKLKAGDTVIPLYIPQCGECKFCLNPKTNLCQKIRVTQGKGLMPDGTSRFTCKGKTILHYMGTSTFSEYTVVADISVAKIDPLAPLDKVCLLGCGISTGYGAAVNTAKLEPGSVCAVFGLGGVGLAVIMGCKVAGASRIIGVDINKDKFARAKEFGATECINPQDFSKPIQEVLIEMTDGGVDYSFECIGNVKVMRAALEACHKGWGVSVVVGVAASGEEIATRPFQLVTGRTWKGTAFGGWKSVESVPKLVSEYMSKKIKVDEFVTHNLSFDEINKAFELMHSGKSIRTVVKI
Description: Various compounds were tested in vitro for their ability to inhibit GSNOR activity.
Pre-cultures were grown from stabs of a GSNOR glycerol stock in 2XYT media containing 100 ug/ml ampicillin after an overnight incubation at 37° C. Cells were then added to fresh 2XYT (4 L) containing ampicillin and grown to an OD (A600) of 0.6-0.9 at 37° C. before induction. GSNOR expression was induced with 0.1% arabinose in an overnight incubation at 20° C.
E. coli cell paste was lysed by nitrogen cavitation and the clarified lysate purified by Ni affinity chromatography on an AKTA FPLC (Amersham Pharmacia). The column was eluted in 20 mM Tris pH 8.0/250 mM NaCl with a 0-500 mM imidazole gradient. […] GSNOR was recovered in the flowthrough fraction and for crystallography is further purified by Q-Sepharose and Heparin flowthrough chromatography in 20 mM Tris pH 8.0, 1 mM DTT, 10 uM ZnSO4.
GSNO and Enzyme/NADH Solutions are made up fresh each day. The Solutions are filtered and allowed to warm to room temperature. GSNO Solution: 100 mM NaPO4 (pH 7.4), 0.480 mM GSNO. 396 μL of GSNO Solution is added to a cuvette followed by 8 μL of test compound in DMSO (or DMSO only for full reaction control) and mixed with the pipette tip. Compounds to be tested are made up at a stock concentration of 10 mM in 100% DMSO. 2 fold serial dilutions are done in 100% DMSO. 8 μL of each dilution are added to an assay so that the final concentration of DMSO in the assay is 1%. The concentrations of compounds tested range from 100 to 0.003 μM. Enzyme/NADH Solution: 100 mM NaPO4 (pH 7.4), 0.600 mM NADH, 1.0 μg/mL GSNO Reductase. 396 μL of the Enzyme/NADH Solution is added to the cuvette to start the reaction. The cuvette is placed in the Cary 3E UV/Visible Spectrophotometer and the change in 340 nm absorbance/min at 25° C. is recorded for 3 minutes. The assays are done in triplicate for each compound concentration. IC50's for each compound are calculated using the standard curve analysis in the Enzyme Kinetics Module of SigmaPlot.
Final assay conditions: 100 mM NaPO4, pH 7.4, 0.240 mM GSNO, 0.300 mM NADH, 0.5 μg/mL GSNO Reductase and 1% DMSO. Final volume: 800 μL/cuvette.

[4] = target: T1, human NK3 receptor; assay: Human NK3 receptor binding assay at 1 uM; settings: 1 μM test compound; 0.4 nM [3H]SR142801; CHO cell membranes; read-out: percent inhibition at 1 μM, human NK3 receptor binding
Description: Evaluation of the affinity of compounds for the human NK3 receptor from transfected CHO cells was performed using an antagonist radioligand binding assay. Antagonist activity was evaluated at a concentration of 1 μM for a representative subset of test compounds, and the results were expressed as the percent inhibition at that concentration.
Receptor binding assays were performed using crude membranes prepared from CHO cells expressing human NK3 receptor. Osanetant (SR142801), a non-peptide NK3 antagonist, was used as a ligand, and SB222200 was used as a positive control reference compound. […] The filters were rinsed several times with ice-cold 50 mM Tris/HCl using a 96-sample cell harvester (Unifilter, Packard), dried, and counted for radioactivity in a scintillation counter (Topcount, Packard) using a scintillation cocktail (Microscint 0, Packard). Each test compound was evaluated at a single concentration of 1 μM. […] Nonspecific binding was determined in the presence of 10 μM SB222200. […] The results are expressed as a percent of control specific binding ((measured specific binding/control specific binding)×100) obtained in the presence of the test compounds.

pIC50 [1]	inhibition at 10 µM [2] [%]	pIC50 [3]	inhibition at 1 µM [4] [%]	Structure (SMILES)
~5.96	> 50	> 7.00	–	CCOc1cc(C2CC(=O)NC(c3ccccc3)=C2c2ccccc2)cc([N+](=O)[O-])c1O (stereo not shown) [Example 1, 4-(3-ethoxy-4-hydroxy-5-nitrophenyl)-5,6-diphenyl-3,4-dihydropyridin-2(1H)-one]
–	> 50	> 7.00	–	CCOc1cc(C2CC(=O)NC(c3cccnc3)=C2c2ccsc2)cc([N+](=O)[O-])c1O (stereo not shown) [Example 2, 4-(3-ethoxy-4-hydroxy-5-nitrophenyl)-6-(pyridin-3-yl)-5-(thiophen-3-yl)-3,4-dihydropyridin-2(1H)-one]
–	> 50	> 7.00	–	CCOc1cc(C2CC(=O)NC(c3cnn(C)c3)=C2c2ccsc2)cc([N+](=O)[O-])c1O (stereo not shown) [Example 4, 4-(3-ethoxy-4-hydroxy-5-nitrophenyl)-6-(1-methyl-1H-pyrazol-4-yl)-5-(thiophen-3-yl)-3,4-dihydropyridin-2(1H)-one]
–	–	> 7.00	–	O=C1CC(c2ccc(C(=O)O)c(O)c2)C(c2ccsc2)=C(c2ccccc2)N1 (stereo not shown) [Example 7, 2-hydroxy-4-(2-oxo-6-phenyl-5-(thiophen-3-yl)-1,2,3,4-tetrahydropyridin-4-yl)benzoic acid]
–	–	> 7.00	–	Cn1cc(C2=C(c3ccsc3)C(c3ccc(C(=O)O)c(O)c3)CC(=O)N2)cn1 (stereo not shown) [Example 9, 2-hydroxy-4-(6-(1-methyl-1H-pyrazol-4-yl)-2-oxo-5-(thiophen-3-yl)-1,2,3,4-tetrahydropyridin-4-yl)benzoic acid]
–	–	> 7.00	> 50	O=C1CC(c2cc(OCCO)c(O)c([N+](=O)[O-])c2)C(c2ccccc2)=C(c2ccccc2)N1 (stereo not shown) [Example 14, 4-(4-hydroxy-3-(2-hydroxyethoxy)-5-nitrophenyl)-5,6-diphenyl-3,4-dihydropyridin-2(1H)-one]
–	–	–	> 50	CCOc1cc(C2CC(=O)N(C)C(c3ccccc3)=C2c2ccccc2)cc([N+](=O)[O-])c1O (stereo not shown) [Example 16, 4-(3-ethoxy-4-hydroxy-5-nitrophenyl)-1-methyl-5,6-diphenyl-3,4-dihydropyridin-2(1H)-one]
–	–	> 7.00	–	Cn1cc(C2=C(c3cccs3)C(c3cc(O)c(C(=O)O)c(F)c3)CC(=O)N2)cn1 (stereo not shown) [Example 17, 2-fluoro-6-hydroxy-4-(6-(1-methyl-1H-pyrazol-4-yl)-2-oxo-5-(thiophen-2-yl)-1,2,3,4-tetrahydropyridin-4-yl)benzoic acid]
